Patent US7420029B2, “Tissue-specific transporter inhibitor” (Japan Science and Technology Agency, priority 2001, dated 2008)
One block for each molecule: values may come before it.

Columns and labels:
PEPT 1 [1] = biological target: T1, PEPT 1 (Rattus norvegicus, UniProt P51574); conditions: in vivo, po
T1 sequence (P51574 1-710): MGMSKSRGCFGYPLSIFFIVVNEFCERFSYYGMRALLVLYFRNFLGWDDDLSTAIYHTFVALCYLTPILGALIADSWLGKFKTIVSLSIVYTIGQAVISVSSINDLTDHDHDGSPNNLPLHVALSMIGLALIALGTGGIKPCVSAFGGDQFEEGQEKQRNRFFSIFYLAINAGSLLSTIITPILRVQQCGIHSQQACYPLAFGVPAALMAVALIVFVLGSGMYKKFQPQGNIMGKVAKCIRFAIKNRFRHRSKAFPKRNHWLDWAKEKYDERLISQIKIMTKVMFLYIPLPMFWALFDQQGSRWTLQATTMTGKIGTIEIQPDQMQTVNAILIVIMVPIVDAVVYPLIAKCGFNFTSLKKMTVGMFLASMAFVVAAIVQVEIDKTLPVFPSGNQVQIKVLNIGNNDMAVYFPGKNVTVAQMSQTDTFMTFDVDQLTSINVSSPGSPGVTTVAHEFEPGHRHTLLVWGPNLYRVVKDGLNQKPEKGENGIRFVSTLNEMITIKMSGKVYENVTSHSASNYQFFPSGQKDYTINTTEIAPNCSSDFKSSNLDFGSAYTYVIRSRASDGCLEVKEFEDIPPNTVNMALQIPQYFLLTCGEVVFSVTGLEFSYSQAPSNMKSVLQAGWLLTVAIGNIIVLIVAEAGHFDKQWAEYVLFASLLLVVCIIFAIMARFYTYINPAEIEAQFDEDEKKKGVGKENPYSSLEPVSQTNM
Description: (§1) At the column temperature 35° C., 7% of acetonitrile (containing 0.1 M of acetic acid buffer (pH 3.0) and 0.01 M of 1-pentasulfonic acid sodium) was used as a mobile phase for separating elution at flow rate 0.9 ml/min. The detection was conducted at wavelength 240 nm, and CDX concentration in the plasma was determined.
(§2) In the formula, C, F, D, ka, ke, Vd and t represent CDX concentration in the plasma, absorptance, dosage, absorption rate constant, elimination rate constant, distribution volume, and time interval between the drug administration and blood collection, respectively.
(§3) In the formula, CL represents total clearance, Dose represents the dose of the drug, respectively.
(§4) With regard to 2.5 mg/kg CDX and 45 mg/kg CEX (▾), CEX was orally administered to the rats 30 minutes before the administration of CDX. Each pharmacokinetic parameter of the above-mentioned rats was calculated based on the change in the CDX concentration in the blood, with the formula (4), the formula (6), the formula (7), and the formula (8), and evaluated. Values shown in the figure and the table are the mean±S.E.M. of three to four independent experiments.
(§5) Then each pharmacokinetic parameter was calculated based on the change in the CDX concentration in the blood, with the formula (4), the formula (6), the formula (7), and the formula (8), and evaluated. […] Values shown in the figures are the mean±S.E.M. of two to four independent experiments, and values shown in the tables are the mean±S.E.M. of three independent experiments.
(§6) Values shown in the figure and the table are the mean±S.E.M. of two to four independent experiments.
(§7) VK-PRK was orally administered 30 minutes before CDX administration. […] Values shown in FIG. 10, FIG. 11 and Table 14 are the mean±S.E.M. of four independent experiments, and values shown in Table 13 are the mean±S.E.M. of three independent experiments.
(§8) Values shown in the figure are the mean±S.E.M. of three independent experiments, and values shown in the table are the mean±S.E.M. of four independent experiments.

hPEPT 1 [2] = biological target: T2, hPEPT 1 (Homo sapiens, UniProt P46059); experiment: Inhibitory effect on [^3H] Gly-Sar uptake by HeLa-hPEPT 1 cells; assay type: cell-based; conditions: for [^3H] Gly-Sar uptake % of control: HeLa-hPEPT 1, pH 6.0, 2 min
T2 construct: expressed in transfected cells; mock = HeLa-pcDNA 3
T2 sequence (P46059 1-708): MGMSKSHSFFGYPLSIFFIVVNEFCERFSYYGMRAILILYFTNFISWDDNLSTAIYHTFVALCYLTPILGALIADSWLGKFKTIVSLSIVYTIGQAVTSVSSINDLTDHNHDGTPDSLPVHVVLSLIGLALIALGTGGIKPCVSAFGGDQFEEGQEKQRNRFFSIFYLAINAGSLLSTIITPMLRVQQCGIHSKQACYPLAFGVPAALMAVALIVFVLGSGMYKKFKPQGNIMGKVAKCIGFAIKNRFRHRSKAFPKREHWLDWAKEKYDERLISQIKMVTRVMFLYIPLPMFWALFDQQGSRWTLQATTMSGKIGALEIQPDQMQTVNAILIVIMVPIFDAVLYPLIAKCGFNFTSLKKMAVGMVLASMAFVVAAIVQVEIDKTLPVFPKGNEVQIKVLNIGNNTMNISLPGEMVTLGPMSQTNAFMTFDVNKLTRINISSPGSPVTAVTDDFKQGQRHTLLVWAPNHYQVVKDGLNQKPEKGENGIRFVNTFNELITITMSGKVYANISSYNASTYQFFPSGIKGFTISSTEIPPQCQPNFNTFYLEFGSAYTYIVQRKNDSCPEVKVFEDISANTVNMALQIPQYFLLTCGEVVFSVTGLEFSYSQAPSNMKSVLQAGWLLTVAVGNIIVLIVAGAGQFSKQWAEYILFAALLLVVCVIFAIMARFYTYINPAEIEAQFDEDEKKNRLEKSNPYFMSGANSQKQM
Description: In order to examine the recognition property of VK-PRX and its component, VK-α-CD, both obtained in Example 4, to PEPT 1, the inihibitory effect to the uptake of [^3H] Gly-Sar by using HeLa cells stably expressing hPEPT 1 (HeLa-hPEPT 1) was examined. HeLa-hPEPT 1 cells or HeLa-pcDNA (Mock) cells prepared by the method described previously (Int. J. Cancer. 88, 274-80, 2000) were placed in a multidish (Nunc) at 10^6 cells/well and cultured in an incubator (Hirasawa) at 37° C. and 5% CO2 for four days. As a broth, DMEM (Dulbecco's modified Eagle's medium; Gibco Laboratories) containing 10% FCS (Gibco Laboratories), 2 mM L-glutamine, and 1 mg/ml G418 was used. After culture, the broth was aspirated and each cell was washed three times with 1 ml of Hanks' balanced salt solution (HBSS; 0.952 mM CaCl2, 5.36 mM KCl, 0.441 mM KH2PO4, 0.812 mM MgSO4, 136.7 mM NaCl, 0.385 mM Na2HPO4, 25 mM D-glucose, 10 mM MES: pH 6.0) at 37° C., then preincubated for five minutes. Subsequently, 250 μl of HBSS containing each inhibitor with the concentration shown in FIG. 4 and Table 8, and [^3H(G)] Gly-Sar (476 nM) was added and an uptake reaction was initiated at 37° C. The inhibitors, VK-PRX (No. 1˜6), were prepared such that the highest concentration of dissolved VK-PRX would be 500 μM or lower, and were filtrated through a filter, and then used for the uptake reaction. At the beginning of the reaction, the reaction solution was taken from each dish and placed into […]. Then, 4 ml of liquid scintillation cocktail (Clear-sol I, Nacalai tesque) was added to the solution, and radioactivity in the reaction solution was measured by a liquid scintillation counter (LSC-5100, Aloka Co. Ltd.). Two minutes after the beginning of the reaction, the reaction solution in each dish was removed by aspiration, and the reaction was stopped by washing the cells three times with 1 ml of ice-cooled HBSS (HEPES: pH 7.4). Subsequently, 250 μl of 5 N NaOH was added to each dish to solubilize the cells (for two hours or longer), and 250 μl of 5 N HCl was added for neutralization, then the whole amount was poured into mini vial, and 4 ml of liquid scintillation cocktail (Clear-sol I, Nacalai tesque) was added, and radioactivity taken in the cells was measured.
Further, in order to measure the amount of cellular proteins after the culture mentioned above, the cultured cells were solubilized, Bio-Rad Protein Assay reagent (Bio-Rad Co.) was added, and the absorbance at 595 nm was measured. As a standard, BSA (bovine serum albumin) was used. Based on the results, the uptake amount of [^3H] Gly-Sar into the cells [cell/medium ratio (μl/mg·protein)] was calculated according to the formula (3). The value of the control in FIG. 4 is the result of the uptake reaction conducted in the absence of the inhibitor. […] It has been shown that the uptake of [^3H]

[3] = CDX plasma pharmacokinetics after instant intravenous injection to rats with or without oral VK-PRX; conditions: male, Sprague-Dawley, rat
Description: as §1
In the formula, α, β and V1 represent gradient of distribution phase, gradient of elimination phase, and distribution volume of central compartment, respectively.
as §3

PEPT 1 [4] = biological target: T1, PEPT 1; experiment: in vivo; conditions: male, Sprague-Dawley, po; for Tmax: Tmax of CDX
Description: as §1, §2, §3, §4, §5, §6, §7, §8

hPEPT 1 [5] = biological target: T2, hPEPT 1; experiment: Effect of preincubation with inhibitor on [^3H] Gly-Sar uptake by HeLa-hPEPT 1 cells; assay type: cell-based; conditions: FIG. 5
Description: Gly-Sar uptake was examined by using HeLa cells stably expressing hPEPT 1 (HeLa-hPEPT 1). In the presence or absence of each inhibitor with concentrations shown in FIG. 5, preincubation was conducted for 30 minutes (open columns), and after the reaction solution was removed, the inhibitory effect on [^3H] Gly-Sar uptake was measured in a manner similar to that of Example 5 except that the uptake reaction was conducted in HBSS containing the same concentration of the inhibitor and [^3H] Gly-Sar (476 nM) (closed columns). In the figure, “Mock” indicates the uptake by HeLa-pcDNA 3 cells. […] Gly-Sar.

Molecule: CC1=C(C(=O)O)N2C(=O)[C@@H](NC(=O)[C@H](N)c3ccc(O)cc3)[C@H]2SC1 [Cefadroxil, cefadroxil]
dose dependence of AUC0−∞ and Cmax of CDX (in words) (PEPT 1 [1]): saturation phenomenon
AUC0-∞ of CDX (PEPT 1 [1]; male, Sprague-Dawley, 5 mg/kg): 272 ± 9.27 µg·min/mL
ke (elimination rate constant) of CDX (PEPT 1 [1]; male, Sprague-Dawley, 5 mg/kg): 0.54 ± 0.06 h⁻¹
[^3H] Gly-Sar uptake % of control (hPEPT 1 [2]; inhibitor 10 mM): 27.69 ± 1.44 % of control
Vd [3]: 0.162 ± 0.00899 L
clearance [3]: 11 ± 0.41 mL/min
AUC(0-inf) (PEPT 1 [4]; 5 mg/kg, AUC0-∞ of CDX): 2700 ng·h/mL
Tmax (PEPT 1 [4]; 5 mg/kg): 1.09 ± 0.08 h
k el (PEPT 1 [4]; 5 mg/kg, ke (elimination rate constant) of CDX): 8.61e-05 s⁻¹
Tmax (PEPT 1 [4]; […]): 0.95 h

Molecule: CC1=C(C(=O)O)N2C(=O)C(NC(=O)C(N)c3ccccc3)C2SC1 (centres unmarked) [Cephalexin, cephalexin]
[^3H] Gly-Sar uptake % of control (hPEPT 1 [2]; inhibitor 10 mM): 70.12 ± 1.45 % of control

Molecule: NCC(=O)O [Gly]
[^3H] Gly-Sar uptake % of control (hPEPT 1 [2]; inhibitor 10 mM): 97.71 ± 7.10 % of control

Molecule: Gly-Sar
[^3H] Gly-Sar uptake % of control (hPEPT 1 [2]; inhibitor 10 mM): 12.93 ± 2.45 % of control

Continued, in another order:

[^3H] Gly-Sar uptake % of control (hPEPT 1 [2]; inhibitor 3 mM): 21.13 ± 1.80 % of control
Molecule: CC(C)[C@H](N)C(=O)N[C@@H](CCCCN)C(=O)O [Val-Lys, valyl-lysine]

[^3H] Gly-Sar uptake % of control (hPEPT 1 [2]; inhibitor 3 mM): 125.87 ± 23.34 % of control
Inhibitory effect on [^3H] Gly-Sar uptake (in words) (hPEPT 1 [5]): no inhibitory effect
Molecule: OC[C@H]1O[C@@H]2O[C@H]3[C@H](O)[C@@H](O)[C@@H](O[C@H]4[C@H](O)[C@@H](O)[C@@H](O[C@H]5[C@H](O)[C@@H](O)[C@@H](O[C@H]6[C@H](O)[C@@H](O)[C@@H](O[C@H]7[C@H](O)[C@@H](O)[C@@H](O[C@H]1[C@H](O)[C@H]2O)O[C@@H]7CO)O[C@@H]6CO)O[C@@H]5CO)O[C@@H]4CO)O[C@@H]3CO [α-CD, α-cyclodextrin]
Inhibitory effect on [^3H] Gly-Sar uptake (in words) (hPEPT 1 [2]; HeLa-hPEPT 1, FIG. 4 and Table 8): significant inhibitory effect was not observed
